Experimental data: the supplement of paper PMC8617591

Legend:
[1] = test system: Mycobacterium tuberculosis Erdman (autoluminescent); assay: total FIC50 (Loewe) at 50% inhibition, three-drug combination (log2); higher = more antagonistic
Method: (§1)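 DiaMOND equipotent three-drug combination dose responses (10 doses, 1.5- or 2-fold spacing, centred on IC90) against autoluminescent M. tuberculosis Erdman in 8 in vitro models. Read-out is OD600, or luminescence for the intracellular and dormancy models, normalised to untreated wells. Hill-fit Einf, AUC25 and GRinf are potency metrics; FIC50 and FIC90 are total Loewe fractional inhibitory concentrations as log2 (negative = synergy).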

[2] = test system: Mycobacterium tuberculosis Erdman (autoluminescent); assay: Einf, fitted maximum growth inhibition of three-drug combination (fraction); higher = stronger maximal inhibition
Method: as §1

[3] = test system: Mycobacterium tuberculosis Erdman (autoluminescent); assay: GRinf, maximum normalised growth rate inhibition (three-drug combination) (unitless (-1 to 1)); higher = less effect (negative = killing)
Method: as §1

[4] = test system: Mycobacterium tuberculosis Erdman (autoluminescent); assay: AUC25, normalised area under dose response up to IC25 (three-drug combination) (fraction (0-1)); higher = more potent at low dose
Method: as §1

[5] = test system: Mycobacterium tuberculosis Erdman (autoluminescent); assay: total FIC90 (Loewe) at 90% inhibition, three-drug combination (log2); higher = more antagonistic
Method: as §1

NNC(=O)c1ccncc1 [isoniazid] + COc1c(N2C[C@@H]3CCCN[C@@H]3C2)c(F)cc2c(=O)c(C(=O)O)cn(C3CC3)c12 [moxifloxacin] + CO[C@H]1/C=C/O[C@@]2(C)Oc3c(C)c(O)c4c(O)c(c(/C=N/N5CCN(C)CC5)c(O)c4c3C2=O)NC(=O)/C(C)=C\C=C\[C@H](C)[C@H](O)[C@@H](C)[C@@H](O)[C@@H](C)[C@H](OC(C)=O)[C@@H]1C [rifampicin]
Settings	AUC25, [4]	Einf, [2]	GRinf, [3]	total FIC50, [1]	total FIC90, [5]
in vitro model: acidic pH 5.7, time point: constant (~7 days, model-specific)	0.0693	0.835	-0.0692	0.568	–
in vitro model: acidic pH 5.7, time point: terminal (~4-5 doublings, model-specific)	0.0605	0.974	-0.11	0.624	0.457
in vitro model: intracellular J774, time point: constant = terminal	–	0.969	-0.238	–	0.594

Settings	AUC25, [4]	Einf, [2]	GRinf, [3]	total FIC50, [1]	total FIC90, [5]
in vitro model: butyrate, time point: constant (~7 days, model-specific)	0.104	0.934	-0.00353	0.315	0.977
in vitro model: butyrate, time point: terminal (~4-5 doublings, model-specific)	0.0772	0.969	0.000303	0.345	0.38
in vitro model: cholesterol 0.05 mM, time point: constant (~7 days, model-specific)	0.0843	0.603	0.0201	0.719	–
in vitro model: cholesterol 0.05 mM, time point: terminal (~4-5 doublings, model-specific)	0.0746	0.87	-0.125	1.04	0.125
in vitro model: cholesterol-high 0.2 mM, time point: constant (~7 days, model-specific)	0.0802	0.879	-0.196	0.265	–
in vitro model: cholesterol-high 0.2 mM, time point: terminal (~4-5 doublings, model-specific)	0.0682	1	-0.836	0.508	0.443
in vitro model: dormancy (butyrate + nitrate, low O2), time point: constant (~7 days, model-specific)	0.0766	0.882	0.232	0.163	-0.336
in vitro model: dormancy (butyrate + nitrate, low O2), time point: terminal (~4-5 doublings, model-specific)	0.0621	0.98	-0.102	0.14	0.342
in vitro model: standard 7H9 glycerol, time point: constant = terminal	0.0275	0.873	0.197	0.736	–
in vitro model: valerate, time point: constant (~7 days, model-specific)	0.0382	0.865	0.0264	0.773	–
in vitro model: valerate, time point: terminal (~4-5 doublings, model-specific)	0.0263	0.93	0.0382	0.731	0.407

COc1nc2ccc(Br)cc2cc1[C@@H](c1ccccc1)[C@@](O)(CCN(C)C)c1cccc2ccccc12 [bedaquiline] + CC[C@@H](CO)NCCN[C@@H](CC)CO [ethambutol] + CO[C@H]1/C=C/O[C@@]2(C)Oc3c(C)c(O)c4c(O)c(c(/C=N/N5CCN(C6CCCC6)CC5)c(O)c4c3C2=O)NC(=O)/C(C)=C\C=C\[C@H](C)[C@H](O)[C@@H](C)[C@@H](O)[C@@H](C)[C@H](OC(C)=O)[C@@H]1C [rifapentine]
Settings	AUC25, [4]	Einf, [2]	GRinf, [3]	total FIC50, [1]	total FIC90, [5]
in vitro model: acidic pH 5.7, time point: constant (~7 days, model-specific)	0.114	0.961	-0.423	-0.16	–
in vitro model: acidic pH 5.7, time point: terminal (~4-5 doublings, model-specific)	0.0469	0.98	-0.179	0.232	-0.455
in vitro model: intracellular J774, time point: constant = terminal	–	0.947	-0.165	–	-1.85

Settings	AUC25, [4]	Einf, [2]	GRinf, [3]	total FIC50, [1]	total FIC90, [5]
in vitro model: butyrate, time point: constant (~7 days, model-specific)	0.0669	0.935	-0.0718	0.486	–
in vitro model: butyrate, time point: terminal (~4-5 doublings, model-specific)	0.0551	0.972	-0.0579	0.432	-0.198
in vitro model: cholesterol 0.05 mM, time point: constant (~7 days, model-specific)	0.0736	0.7	-0.229	0.896	–
in vitro model: cholesterol 0.05 mM, time point: terminal (~4-5 doublings, model-specific)	0.0689	0.896	-0.175	1	–
in vitro model: cholesterol-high 0.2 mM, time point: constant (~7 days, model-specific)	0.0263	0.996	-0.736	1.12	–
in vitro model: cholesterol-high 0.2 mM, time point: terminal (~4-5 doublings, model-specific)	0.0449	0.998	-0.697	1.03	1.09
in vitro model: dormancy (butyrate + nitrate, low O2), time point: constant (~7 days, model-specific)	0.125	0.891	0.428	1.06	–
in vitro model: dormancy (butyrate + nitrate, low O2), time point: terminal (~4-5 doublings, model-specific)	0.105	0.982	-0.0507	0.39	0.33
in vitro model: standard 7H9 glycerol, time point: constant = terminal	0.0577	0.931	0.00717	0.213	–
in vitro model: valerate, time point: constant (~7 days, model-specific)	0.0547	0.887	-0.0669	0.793	–
in vitro model: valerate, time point: terminal (~4-5 doublings, model-specific)	0.0403	0.948	-0.0709	0.823	-0.0548

CC[C@@H](CO)NCCN[C@@H](CC)CO [ethambutol] + NNC(=O)c1ccncc1 [isoniazid] + O=[N+]([O-])c1cn2c(n1)OC[C@@H](OCc1ccc(OC(F)(F)F)cc1)C2 [pretomanid]
Settings	AUC25, [4]	Einf, [2]	GRinf, [3]	total FIC50, [1]	total FIC90, [5]
in vitro model: acidic pH 5.7, time point: constant (~7 days, model-specific)	0.121	0.841	-0.764	0.401	–
in vitro model: acidic pH 5.7, time point: terminal (~4-5 doublings, model-specific)	0.0806	0.968	-0.36	0.77	0.544
in vitro model: intracellular J774, time point: constant = terminal	–	0.996	-0.562	–	-0.84

Settings	AUC25, [4]	Einf, [2]	GRinf, [3]	total FIC50, [1]	total FIC90, [5]
in vitro model: butyrate, time point: constant (~7 days, model-specific)	0.0954	0.941	-0.0462	0.443	–
in vitro model: butyrate, time point: terminal (~4-5 doublings, model-specific)	0.0496	0.966	-0.0497	0.439	0.012
in vitro model: cholesterol 0.05 mM, time point: constant (~7 days, model-specific)	0.11	0.715	-0.203	0.668	–
in vitro model: cholesterol 0.05 mM, time point: terminal (~4-5 doublings, model-specific)	0.0657	0.858	0.0963	0.823	–
in vitro model: cholesterol-high 0.2 mM, time point: constant (~7 days, model-specific)	0.0675	0.881	-0.113	1.17	–
in vitro model: cholesterol-high 0.2 mM, time point: terminal (~4-5 doublings, model-specific)	0.0388	0.996	-0.623	1.18	1.18
in vitro model: dormancy (butyrate + nitrate, low O2), time point: constant (~7 days, model-specific)	0.162	0.915	0.106	0.0212	–
in vitro model: dormancy (butyrate + nitrate, low O2), time point: terminal (~4-5 doublings, model-specific)	0.105	0.982	-0.213	0.237	0.398
in vitro model: standard 7H9 glycerol, time point: constant = terminal	0.0742	0.924	0.0732	0.498	–
in vitro model: valerate, time point: constant (~7 days, model-specific)	0.109	0.867	0.0667	0.146	–
in vitro model: valerate, time point: terminal (~4-5 doublings, model-specific)	0.0768	0.92	0.0915	0.406	–
